Data taken from US20250188092A1, “RIFAMYCIN ANALOGS” (THE REGENTS OF THE UNIVERSITY OF MICHIGAN, priority 2021, published 2025).
Read-outs that look alike come from different tables or passages of the source.

Tests used:
E. coli WT RNAP = molecular target: T1, E. coli WT RNAP (Escherichia coli, UniProt P0A8V2); assay: biochemical
T1 construct: made in house

M. tuberculosis H37Rv = assay: Minimum bactericidal concentration (MBC, CFU Assay); assay type: cell-based, Mycobacterium tuberculosis; conditions: for MBC99 Day 7 (CFU Assay) MBC99 Rel to RMP: CFU Assay MBC99 relative to rifampin (RMP = 1); for MBC: Mycobacterium tuberculosis, 168 h, Day 7, M. tuberculosis H37Rv, ≥99% reduction in colony forming units, read-out: MBC99 Day 7 (CFU Assay) MBC99
VERO cells (ATCC CRL-81) = assay: Vero cell toxicity; assay type: cell-based; conditions: 72 hours exposure
Procedure: Cytotoxicity for a mammalian cell line was determined by exposing VERO cells (ATCC CRL-81) to serial dilutions of test compounds for 72 hours, followed by addition of resazurin and measurement of fluorescence after 4 hours incubation (Choules, et al., Antimnicrob. Agents Chemother. 2019, 63, e02204-02218).

[1] = molecular target: T2, E. coli S531L (RIF^R) RNAP (Escherichia coli, UniProt P0A8V2, S531L); assay: biochemical
T2 construct: made in house

MTB H37Rv ATCC 27294 = assay: MIC, microplate Alamar Blue assay (MABA); assay type: cell-based, Mycobacterium tuberculosis; conditions: for MIC / MIC90: MTB H37Rv ATCC 27294, microplate Alamar Blue assay, lowest concentration giving ≥90% reduction in fluorescence; for MIC: read-out: MIC90 MABA
[2] = molecular target: T3, E. coli D516V (RIF^R) RNAP (Escherichia coli, UniProt P0A8V2, D516V); assay: biochemical
T3 construct: made in house

[3] = molecular target: T4, human pregnane X receptor (hPXR) (Homo sapiens, UniProt O75469)
T4 sequence (O75469 1-434): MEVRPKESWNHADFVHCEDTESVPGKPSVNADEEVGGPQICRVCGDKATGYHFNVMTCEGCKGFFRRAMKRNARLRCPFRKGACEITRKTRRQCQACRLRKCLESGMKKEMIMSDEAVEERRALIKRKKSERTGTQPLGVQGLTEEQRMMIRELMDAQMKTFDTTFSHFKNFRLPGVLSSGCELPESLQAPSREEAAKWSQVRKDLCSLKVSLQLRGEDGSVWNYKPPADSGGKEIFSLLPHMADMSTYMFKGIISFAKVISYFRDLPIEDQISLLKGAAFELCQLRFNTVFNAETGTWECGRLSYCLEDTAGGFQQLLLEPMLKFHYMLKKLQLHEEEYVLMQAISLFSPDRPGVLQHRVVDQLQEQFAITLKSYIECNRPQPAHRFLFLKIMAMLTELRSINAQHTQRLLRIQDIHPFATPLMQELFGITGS

WT MTB RNAP = molecular target: T5, WT MTB RNAP (Mycobacterium tuberculosis, UniProt P9WGY9); assay type: biochemical; conditions: lower limit of detection ~5 nM
T5 construct: made in house; host or cells: E. coli BL21(DE3)

`CO[C@H]1/C=C/O[C@@]2(C)Oc3c(C)c(O)c4c(=O)c(c5oc6cc(N7CCN(CC(C)C)CC7)cc(OCc7cccc(CN8CCN(C(=O)Cn9ccnc9)CC8)c7)c6nc-5c4c3C2=O)NC(=O)/C(C)=C\C=C\[C@H](C)[C@H](O)[C@@H](C)[C@@H](O)[C@@H](C)[C@H](OC(C)=O)[C@@H]1C` [Compound 12c, (7S,9E,11S,12R,13S,14R,15R,16R,17S,18S,19E,21Z)-2,15,17-Trihydroxy-32-{[3-({4-[2-(1H-imidazol-1-yl)acetyl]piperazin-1-yl}methyl)phenyl]methoxy}-11-methoxy-3,7,12,14,16,18,22-heptamethyl-30-[4-(2-methylpropyl)piperazin-1-yl]-6,23,37-trioxo-8,27,38-trioxa-24,34-diazahexacyclo[23.11.1.1^4,7.0^5,36.0^26,35.0^28,33]octatriaconta-1(36)2,4,9,19,21,25,28,30,32,34-undecaen-13-yl acetate] was tested, and the IC50 (E. coli WT RNAP) was 0.014 µM, the “MBC99 Day 7 (CFU Assay) MBC99 Rel to RMP” value (M. tuberculosis H37Rv) was under 0.08 and the MBC (M. tuberculosis H37Rv) was under 0.02 µM. For the same molecule, the IC50 (VERO cells (ATCC CRL-81); Chlorocebus sabaeus, Vero) was over 8 µM, the IC50 [1] was 66 µM and the “MIC90 MABA Rel to RMP” value (MTB H37Rv ATCC 27294) was 0.12. For the same molecule, the MIC (MTB H37Rv ATCC 27294; Mycobacterium tuberculosis) was 0.0048 µM, the IC50 [2] was 17 µM and the “DPX2 Viability @ 6.25 μM” value (DPX2 cells; 6.25 μM, 24 h) was 107%. The “DPX2 Viability @ 25 μM” value (DPX2 cells; human) was 95%.
With `CO[C@H]1/C=C/O[C@@]2(C)Oc3c(C)c(O)c4c(=O)c(c5oc6cccc(OCc7ccc(CN8CCN(C(=O)Cn9ccnc9)CC8)cc7)c6nc-5c4c3C2=O)NC(=O)/C(C)=C\C=C\[C@H](C)[C@H](O)[C@@H](C)[C@@H](O)[C@@H](C)[C@H](OC(C)=O)[C@@H]1C` [Compound 16b, (7S,9E,11S,12R,13S,14R,15R,16R,17S,18S,19E,21Z)-2,15,17-Trihydroxy-32-{[4-({4-[2-(1H-imidazol-1-yl)acetyl]piperazin-1-yl}methyl)phenyl]methoxy}-11-methoxy-3,7,12,14,16,18,22-heptamethyl-6,23,37-trioxo-8,27,38-trioxa-24,34-diazahexacyclo[23.11.1.1^4,7.0^5,36.0^26,35.0^28,33]octatriaconta-1(36)2,4,9,19,21,25,28,30,32,34-undecaen-13-yl acetate] the IC50 (E. coli WT RNAP) was 0.005 µM, the “MBC99 Day 7 (CFU Assay) MBC99 Rel to RMP” value (M. tuberculosis H37Rv) was 0.15 and the MBC (M. tuberculosis H37Rv) was 0.02 µM. For the same molecule, the IC50 (VERO cells (ATCC CRL-81); Chlorocebus sabaeus, Vero) was over 8 µM, the IC50 [1] was 160 µM and the “MIC90 MABA Rel to RMP” value (MTB H37Rv ATCC 27294) was 1.6. For the same molecule, the MIC (MTB H37Rv ATCC 27294; Mycobacterium tuberculosis) was 0.029 µM, the IC50 [2] was 24 µM and the “DPX2 Viability @ 6.25 μM” value (DPX2 cells; 6.25 μM, 24 h) was 117%. The “DPX2 Viability @ 25 μM” value (DPX2 cells; human) was 76%.
`CO[C@H]1/C=C/O[C@@]2(C)Oc3c(C)c(O)c4c(=O)c(c5oc6cc(N7CCN(CC(C)C)CC7)cc(OCc7ccc(CN8CCN(C(=O)Cn9ccnc9)CC8)cc7)c6nc-5c4c3C2=O)NC(=O)/C(C)=C\C=C\[C@H](C)[C@H](O)[C@@H](C)[C@@H](O)[C@@H](C)[C@H](OC(C)=O)[C@@H]1C` [Compound 17c, (7S,9E,11S,12R,13S,14R,15R,16R,17S,18S,19E,21Z)-2,15,17-Trihydroxy-32-{[4-({4-[2-(1H-imidazol-1-yl)acetyl]piperazin-1-yl}methyl)phenyl]methoxy}-11-methoxy-3,7,12,14,16,18,22-heptamethyl-30-[4-(2-methylpropyl)piperazin-1-yl]-6,23,37-trioxo-8,27,38-trioxa-24,34-diazahexacyclo[23.11.1.1^4,7.0^5,36.0^26,35.0^28,33]octatriaconta-1(36)2,4,9,19,21,25,28,30,32,34-undecaen-13-yl acetate] was tested, and the IC50 (E. coli WT RNAP) was 0.02 µM, the “MBC99 Day 7 (CFU Assay) MBC99 Rel to RMP” value (M. tuberculosis H37Rv) was 0.15 and the MBC (M. tuberculosis H37Rv) was 0.02 µM. The IC50 (VERO cells (ATCC CRL-81); Chlorocebus sabaeus, Vero) was over 8 µM, the IC50 [1] was 100 µM and the “MIC90 MABA Rel to RMP” value (MTB H37Rv ATCC 27294) was 1.3. For the same molecule, the MIC (MTB H37Rv ATCC 27294; Mycobacterium tuberculosis) was 0.023 µM, the IC50 [2] was 12 µM and the “DPX2 Viability @ 6.25 μM” value (DPX2 cells; 6.25 μM, 24 h) was 102%. For the same molecule, the “DPX2 Viability @ 25 μM” value (DPX2 cells; human) was 94%.
In the case of `CO[C@H]1/C=C/O[C@@]2(C)Oc3c(C)c(O)c4c(=O)c(c5oc6cc(N7CCN(CC(C)C)CC7)cc(OCc7ccc(CN8CCN(C(=O)CN9CCOCC9)CC8)cc7)c6nc-5c4c3C2=O)NC(=O)/C(C)=C\C=C\[C@H](C)[C@H](O)[C@@H](C)[C@@H](O)[C@@H](C)[C@H](OC(C)=O)[C@@H]1C` [Compound 17d, (7S,9E,11S,12R,13S,14R,15R,16R,17S,18S,19E,21Z)-2,15,17-Trihydroxy-11-methoxy-3,7,12,14,16,18,22-heptamethyl-30-[4-(2-methylpropyl)piperazin-1-yl]-32-{[4-({4-[2-(morpholin-4-yl)acetyl]piperazin-1-yl}methyl)phenyl]methoxy}-6,23,37-trioxo-8,27,38-trioxa-24,34-diazahexacyclo[23.11.1.1^4,7.0^5,36.0^26,35.0^28,33]octatriaconta-1(36)2,4,9,19,21,25,28,30,32,34-undecaen-13-yl acetate], the IC50 (E. coli WT RNAP) is reported as 0.016 µM, the “MBC99 Day 7 (CFU Assay) MBC99 Rel to RMP” value (M. tuberculosis H37Rv) is reported as 0.15 and the MBC (M. tuberculosis H37Rv) is reported as 0.02 µM. It also gave an IC50 (VERO cells (ATCC CRL-81); Chlorocebus sabaeus, Vero) of over 8 µM, an IC50 [1] of 32 µM and an MIC90 (MTB H37Rv ATCC 27294; Mycobacterium tuberculosis) of under 0.016 µM. For the same molecule, the IC50 [2] was 7.3 µM, the “DPX2 Viability @ 6.25 μM” value (DPX2 cells; 6.25 μM, 24 h) was 104% and the “DPX2 Viability @ 25 μM” value (DPX2 cells; human) was 84%.
In the case of `CO[C@H]1/C=C/O[C@@]2(C)Oc3c(C)c(O)c4c(=O)c(c5oc6cc(N7CCN(C(=O)c8ccc(-c9ccc(C(N)=O)cc9)cc8)CC7)cc(OCc7ccc(CN8CCOCC8)cc7)c6nc-5c4c3C2=O)NC(=O)/C(C)=C\C=C\[C@H](C)[C@H](O)[C@@H](C)[C@@H](O)[C@@H](C)[C@H](OC(C)=O)[C@@H]1C` [Compound 17t, (7S,9E,11S,12R,13S,14R,15R,16R,17S,18S,19E,21Z)-30-(4-{[4-(4-carbamoylphenyl)-phenyl]carbonyl}piperazin-1-yl)-2,15,17-trihydroxy-11-methoxy-3,7,12,14,16,18,22-heptamethyl-32-{[4-(morpholin-4-ylmethyl)phenyl]methoxy}-6,23,37-trioxo-8,27,38-trioxa-24,34-diazahexacyclo[23.11.1.1^4,7.0^5,36.0^26,35.0^28,33]octatriaconta-1,3,5(36)9,19,21,25,28,30,32,34-undecaen-13-yl acetate], the IC50 (VERO cells (ATCC CRL-81)) is reported as 55 µM, the “MIC90 MABA Rel to RMP” value (MTB H37Rv ATCC 27294) is reported as 0.6 and the MIC90 (MTB H37Rv ATCC 27294) is reported as 0.032 µM. The “hPXR Fold Act. (lucif) @ 6.25 μM” value ([3]; 6.25 μM, 24 h) was 1.3 fold, the “hPXR Fold Act. (lucif) @ 25 μM” value ([3]; 25 μM, 24 h) was 2.1 fold and the “DPX2 Viability @ 6.25 μM” value (DPX2 cells; 6.25 μM, 24 h) was 100%.
`CO[C@H]1/C=C/O[C@@]2(C)Oc3c(C)c(O)c4c(=O)c(c5oc6cc(N7CCC(CC(=O)O)CC7)cc(N7CCC(CC(=O)O)CC7)c6nc-5c4c3C2=O)NC(=O)/C(C)=C\C=C\[C@H](C)[C@H](O)[C@@H](C)[C@@H](O)[C@@H](C)[C@H](OC(C)=O)[C@@H]1C` [Compound 17v, 2-{1-[(7S,9E,11S,12R,13S,14R,15R,16R,17S,18S,19E,21Z)-13-(acetyloxy)-32-[4-(carboxymethyl)piperidin-1-yl]-2,15,17-trihydroxy-11-methoxy-3,7,12,14,16,18,22-heptamethyl-6,23,37-trioxo-8,27,38-trioxa-24,34-diazahexacyclo-[23.11.1.1^4,7.0^5,36.0^26,35.0^28,33]octatriaconta-1,3,5(36)9,19,21,25,28,30,32,34-undecaen-30-yl]piperidin-4-yl)acetic acid] was tested, and the IC50 (VERO cells (ATCC CRL-81)) was over 10 µM, the “hPXR Fold Act. (lucif) @ 6.25 μM” value [3] was 1.2 fold and the “hPXR Fold Act. (lucif) @ 25 μM” value [3] was 1.6 fold. The IC50 (WT MTB RNAP) was 0.027 µM, the “DPX2 Viability @ 6.25 μM” value (DPX2 cells) was 110% and the “DPX2 Viability @ 25 μM” value (DPX2 cells) was 100%.
With `CO[C@H]1/C=C/O[C@@]2(C)Oc3c(C)c(O)c4c(=O)c(c5oc6cc(C)cc(N7CCN(C)CC7)c6nc-5c4c3C2=O)NC(=O)/C(C)=C\C=C\[C@H](C)[C@H](O)[C@@H](C)[C@@H](O)[C@@H](C)[C@H](OC(C)=O)[C@@H]1C` [Compound 30a, (7S,9E,11S,12R,13S,14R,15R,16R,17S,18S,19E,21Z)-2,15,17-Trihydroxy-11-methoxy-3,7,12,14,16,18,22,30-octamethyl-32-(4-methylpiperazin-1-yl)-6,23,37-trioxo-8,27,38-trioxa-24,34-diazahexacyclo[23.11.1.1^4,7.0^5,36.0^26,35.0^28,33]octatriaconta-1(36)2,4,9,19,21,25,28,30,32,34-undecaen-13-yl acetate] the IC50 (VERO cells (ATCC CRL-81)) was over 8 µM, the “MIC90 MABA Rel to RMP” value (MTB H37Rv ATCC 27294) was under 0.6 and the MIC90 (MTB H37Rv ATCC 27294) was under 0.016 µM. For the same molecule, the “hPXR Fold Act. (lucif) @ 6.25 μM” value [3] was 4.6 fold, the “hPXR Fold Act. (lucif) @ 25 μM” value [3] was 20.4 fold and the “DPX2 Viability @ 6.25 μM” value (DPX2 cells) was 92%. The “DPX2 Viability @ 25 μM” value (DPX2 cells) was 47%.
